Laboratory results published in paper PMC3089676 (Journal of the American Chemical Society, 2010).

What was measured:
Assay type in all cases: biochemical
[1] = biological target: T1, MetY (WS1012) (Wolinella succinogenes, UniProt Q7M9C8); experiment: MALDI-MS of HcyS-homocysteine formation; conditions: HcyS-COSH as sulfur donor; room temperature
T1 sequence (Q7M9C8 1-407): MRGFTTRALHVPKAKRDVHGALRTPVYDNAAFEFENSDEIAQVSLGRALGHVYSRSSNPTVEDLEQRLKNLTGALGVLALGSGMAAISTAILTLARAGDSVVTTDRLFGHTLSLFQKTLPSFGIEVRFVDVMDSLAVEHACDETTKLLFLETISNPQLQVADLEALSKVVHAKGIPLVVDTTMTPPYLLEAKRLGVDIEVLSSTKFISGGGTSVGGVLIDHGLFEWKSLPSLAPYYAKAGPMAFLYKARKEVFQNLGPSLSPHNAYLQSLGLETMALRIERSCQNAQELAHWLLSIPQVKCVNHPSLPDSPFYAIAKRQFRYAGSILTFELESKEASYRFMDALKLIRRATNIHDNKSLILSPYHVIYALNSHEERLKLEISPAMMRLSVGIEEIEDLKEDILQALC

[2] = biological target: T2, HcyD (WS1005) (Wolinella succinogenes, UniProt Q7MRV8); experiment: 1H-NMR of released alanine; conditions: released from HcyS-Ala (protein substrate); pH 8.0; room temperature
T2 sequence (Q7MRV8 1-130): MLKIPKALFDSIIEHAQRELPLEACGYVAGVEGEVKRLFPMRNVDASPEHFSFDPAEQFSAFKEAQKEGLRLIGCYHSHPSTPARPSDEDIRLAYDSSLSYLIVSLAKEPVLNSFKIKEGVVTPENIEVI

[3] = biological target: T3, HcyF (WS1006) (Wolinella succinogenes, UniProt Q7M9D2); experiment: HPLC detection of AMP formation; conditions: HcyS-Ala and HcyD present; MgCl2; room temperature
T3 sequence (Q7M9D2 1-272): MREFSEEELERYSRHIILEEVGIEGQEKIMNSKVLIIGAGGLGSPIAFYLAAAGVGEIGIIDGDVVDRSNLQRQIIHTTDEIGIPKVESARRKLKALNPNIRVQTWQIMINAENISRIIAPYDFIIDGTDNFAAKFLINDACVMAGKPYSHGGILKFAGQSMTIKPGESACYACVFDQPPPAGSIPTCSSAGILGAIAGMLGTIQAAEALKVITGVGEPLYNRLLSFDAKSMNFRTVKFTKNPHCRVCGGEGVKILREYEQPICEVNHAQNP

CC(=O)OCC[C@H](N)C(=O)O [O-acetyl-L-homoserine]
MALDI-MS of HcyS-homocysteine formation [1]: catalyzed the reaction of HcyS-COSH with O-acetyl-L-homoserine to form HcyS-Homocysteine

C[C@H](N)C(=O)O [alanine]
1H-NMR of released alanine [2]: 1H-NMR analysis of the small-molecule product confirmed the release of alanine from HcyS-Ala

Nc1ncnc2c1ncn2[C@@H]1O[C@H](COP(=O)(O)OP(=O)(O)OP(=O)(O)O)[C@@H](O)[C@H]1O [ATP]
HPLC detection of AMP formation [3]: AMP formation was dependent on HcyF, HcyS-Ala and HcyD
